The source of these data is patent US20240425496A1, “AZETIDINYL PYRIMIDINES AND USES THEREOF” (Aerie Pharmaceuticals, Inc., priority 2021, published 2024).

Holding throughout (format): biochemical
The target of one assay is JAK2 (Homo sapiens (Human), UniProt O60674). Briefly: JAK kinase assay (KINASE-GLO luminescent), JAK2 enzyme. Conditions: JAK2 enzyme 10 nM, Abl peptide substrate. The method, then: All compounds were initially prepared as 10 mM stocks in anhydrous dimethylsulfoxide (DMSO). A 20 μL aliquot of the 10 mM solutions was transferred to individual wells in column 1 of a 96-well polypropylene microtiter plate (Corning #3363) and diluted with DMSO to give a final compound concentration of 4 mM. Test compounds were then serially diluted 1:5 in DMSO for an 11-point concentration response and further diluted in the assay buffer bringing all compound concentrations to a final range of 100 μM to […] in 2.5% DMSO. The assay was performed in white 96-well, flat-bottom, half-area, non-binding assay plate (Corning #3642) in assay buffer consisting of 20 mM HEPES (pH 7.5), 10 mM MgCl2*6H2O, 100 μM sodium orthovanadate, 0.05% CHAPS and 0.1% bovine serum albumin. A 10 μL aliquot of compound from each well of the intermediate dilution plate and 20 μL of a 2× substrate/enzyme solution containing acceptor substrate (800 nM RSK2 peptide […] (SEQ ID NO: 1)), ROCK2 enzyme (10 nM), or ROCK1 enzyme, and 1,4-Dithiothreitol (DTT, 2 uM) were added to all wells. The reaction was initiated by the addition of 10 μL of 4× stock solution ATP (2 μM). Reactions were thoroughly mixed manually, covered, and allowed to incubate at room temperature for 75 min. Protein kinase activity was quantitated using Promega's KINASE-GLO™ luminescent Kinase Assay Kit according to the manufacturer's directions. ATP concentrations remaining in Test wells following the termination of the enzymatic reaction were compared against control wells containing equivalent amounts of DMSO containing no inhibitor (CTRL). […] Percent of Control (POC) values were determined for each concentration of compound tested according to the equation: […]
JAK2, sequence (O60674 whole entry, species assumed): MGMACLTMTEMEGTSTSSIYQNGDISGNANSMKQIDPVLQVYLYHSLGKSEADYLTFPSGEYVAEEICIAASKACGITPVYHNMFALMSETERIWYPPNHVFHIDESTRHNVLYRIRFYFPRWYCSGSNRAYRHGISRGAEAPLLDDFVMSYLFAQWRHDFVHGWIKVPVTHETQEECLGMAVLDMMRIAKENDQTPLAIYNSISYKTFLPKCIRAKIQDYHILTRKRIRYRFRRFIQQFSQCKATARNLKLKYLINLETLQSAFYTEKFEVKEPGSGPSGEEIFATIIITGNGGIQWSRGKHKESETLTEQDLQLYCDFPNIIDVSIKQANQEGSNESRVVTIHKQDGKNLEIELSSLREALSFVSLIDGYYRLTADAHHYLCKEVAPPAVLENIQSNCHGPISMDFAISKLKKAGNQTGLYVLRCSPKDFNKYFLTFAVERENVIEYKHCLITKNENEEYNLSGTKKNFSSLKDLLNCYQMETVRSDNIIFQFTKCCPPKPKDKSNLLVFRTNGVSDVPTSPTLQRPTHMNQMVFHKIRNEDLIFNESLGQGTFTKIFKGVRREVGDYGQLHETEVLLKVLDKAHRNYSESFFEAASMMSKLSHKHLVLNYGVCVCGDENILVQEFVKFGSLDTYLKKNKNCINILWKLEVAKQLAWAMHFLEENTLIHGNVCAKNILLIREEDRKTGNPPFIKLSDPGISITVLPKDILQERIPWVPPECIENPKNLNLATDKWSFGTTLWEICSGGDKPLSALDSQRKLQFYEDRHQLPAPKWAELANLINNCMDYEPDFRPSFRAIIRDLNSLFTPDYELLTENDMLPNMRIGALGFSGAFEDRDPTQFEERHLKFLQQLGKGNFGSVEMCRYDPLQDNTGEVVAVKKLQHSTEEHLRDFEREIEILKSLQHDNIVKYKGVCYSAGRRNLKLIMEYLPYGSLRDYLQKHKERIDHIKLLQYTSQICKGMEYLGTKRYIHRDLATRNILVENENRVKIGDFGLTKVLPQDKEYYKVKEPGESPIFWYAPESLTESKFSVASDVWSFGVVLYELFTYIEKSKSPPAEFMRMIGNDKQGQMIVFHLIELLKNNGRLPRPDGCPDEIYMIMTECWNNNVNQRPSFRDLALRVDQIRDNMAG
IC50 values were calculated using the following 4-parameter logistic curve-fitting algorithm:
Compounds were prepared in the exact same manner as described in the ROCK Kinase Assay with the exception to the substrate and enzyme. […]
(In general: Kinase-Glo reads ATP consumption through a luciferase reaction.)

Another assay addresses TYK2 (Homo sapiens (Human), UniProt P29597). Briefly: JAK kinase assay (KINASE-GLO luminescent), TYK2 enzyme. Conditions: TYK2 enzyme 10 nM, Abl peptide substrate. A digest of the protocol: (§1)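 Kinase-Glo luminescence measures ATP remaining after 75 min at room temperature; ATP 2 μM in 4× stock. 11-point 1:5 dilutions, 2.5% DMSO final. Percent of DMSO control per concentration, IC50 by 4-parameter logistic fit.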

Another assay addresses JAK1 (Homo sapiens (Human), UniProt P23458). Briefly: JAK kinase assay (KINASE-GLO luminescent), JAK1 enzyme. As to conditions: JAK1 enzyme 10 nM, Abl peptide substrate. Put shortly: as §1

Where only a bound is given, the exact number is not on record here.

JAK1, sequence (P23458 whole entry, species assumed): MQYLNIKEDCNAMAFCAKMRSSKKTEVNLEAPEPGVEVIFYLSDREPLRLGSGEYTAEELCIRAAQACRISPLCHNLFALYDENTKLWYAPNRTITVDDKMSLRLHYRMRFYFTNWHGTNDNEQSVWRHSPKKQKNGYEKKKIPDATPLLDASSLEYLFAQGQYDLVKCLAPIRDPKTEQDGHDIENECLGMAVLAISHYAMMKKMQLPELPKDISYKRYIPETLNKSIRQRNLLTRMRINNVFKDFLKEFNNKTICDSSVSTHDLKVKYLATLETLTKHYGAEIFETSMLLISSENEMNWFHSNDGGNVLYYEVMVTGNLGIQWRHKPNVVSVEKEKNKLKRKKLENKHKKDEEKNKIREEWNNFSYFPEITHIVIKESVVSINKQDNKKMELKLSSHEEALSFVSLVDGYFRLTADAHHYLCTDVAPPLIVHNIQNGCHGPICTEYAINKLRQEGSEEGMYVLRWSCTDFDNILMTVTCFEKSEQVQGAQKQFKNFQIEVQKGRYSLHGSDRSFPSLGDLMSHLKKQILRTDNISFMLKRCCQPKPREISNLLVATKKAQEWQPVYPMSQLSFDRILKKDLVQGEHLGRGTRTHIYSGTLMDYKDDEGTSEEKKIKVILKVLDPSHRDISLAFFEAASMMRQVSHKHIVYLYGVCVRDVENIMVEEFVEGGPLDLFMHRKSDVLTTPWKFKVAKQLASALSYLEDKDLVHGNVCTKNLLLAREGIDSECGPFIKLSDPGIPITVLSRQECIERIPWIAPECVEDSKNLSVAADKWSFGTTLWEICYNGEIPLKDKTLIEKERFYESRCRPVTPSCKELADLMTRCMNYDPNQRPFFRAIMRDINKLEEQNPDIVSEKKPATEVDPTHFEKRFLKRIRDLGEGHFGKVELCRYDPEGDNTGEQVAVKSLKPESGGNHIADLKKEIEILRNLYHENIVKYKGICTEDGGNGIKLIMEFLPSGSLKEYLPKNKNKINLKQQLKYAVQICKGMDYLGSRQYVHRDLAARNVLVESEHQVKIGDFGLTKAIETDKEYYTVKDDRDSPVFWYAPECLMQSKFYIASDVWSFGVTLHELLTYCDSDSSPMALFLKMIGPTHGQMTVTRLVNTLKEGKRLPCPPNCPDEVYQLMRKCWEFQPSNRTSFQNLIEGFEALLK
TYK2, sequence (P29597 whole entry, species assumed): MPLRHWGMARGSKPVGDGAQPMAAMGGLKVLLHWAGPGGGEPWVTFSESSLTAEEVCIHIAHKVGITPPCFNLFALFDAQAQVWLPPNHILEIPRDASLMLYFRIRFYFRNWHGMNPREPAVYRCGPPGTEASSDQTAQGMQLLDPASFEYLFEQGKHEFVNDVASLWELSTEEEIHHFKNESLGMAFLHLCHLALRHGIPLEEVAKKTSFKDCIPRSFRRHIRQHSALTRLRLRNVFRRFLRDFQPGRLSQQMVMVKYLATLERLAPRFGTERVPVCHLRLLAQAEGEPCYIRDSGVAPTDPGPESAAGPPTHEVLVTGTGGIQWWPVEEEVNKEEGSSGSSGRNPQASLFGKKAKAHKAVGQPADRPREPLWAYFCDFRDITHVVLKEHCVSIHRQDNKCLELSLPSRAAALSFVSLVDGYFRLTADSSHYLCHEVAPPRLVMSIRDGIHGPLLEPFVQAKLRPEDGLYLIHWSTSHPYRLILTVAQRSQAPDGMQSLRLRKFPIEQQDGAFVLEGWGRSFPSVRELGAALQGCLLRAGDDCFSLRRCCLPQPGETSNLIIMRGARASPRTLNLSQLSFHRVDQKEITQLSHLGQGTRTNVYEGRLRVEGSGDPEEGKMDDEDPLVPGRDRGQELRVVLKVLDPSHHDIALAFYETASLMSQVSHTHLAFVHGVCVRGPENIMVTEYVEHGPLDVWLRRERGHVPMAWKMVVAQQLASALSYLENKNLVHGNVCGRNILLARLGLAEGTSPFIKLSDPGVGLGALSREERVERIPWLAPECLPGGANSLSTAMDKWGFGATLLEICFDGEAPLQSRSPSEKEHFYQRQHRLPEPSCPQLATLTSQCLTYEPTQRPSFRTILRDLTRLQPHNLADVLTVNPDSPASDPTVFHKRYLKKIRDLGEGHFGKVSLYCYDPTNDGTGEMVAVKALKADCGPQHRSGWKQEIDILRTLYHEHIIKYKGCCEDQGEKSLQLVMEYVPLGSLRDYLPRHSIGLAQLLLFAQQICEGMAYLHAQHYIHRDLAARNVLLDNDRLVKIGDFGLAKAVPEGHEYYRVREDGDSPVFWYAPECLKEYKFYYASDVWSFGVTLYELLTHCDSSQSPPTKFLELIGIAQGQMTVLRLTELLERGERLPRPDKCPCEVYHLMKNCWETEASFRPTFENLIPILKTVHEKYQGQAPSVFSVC

Regarding `Cc1cc(Nc2ncc(C)c(N3CC(C#N)C3)n2)sn1` [E7], the IC50 – broadly, the point on the concentration scale where inhibition reaches its midpoint – against JAK2 is < 50 nM. As for `Cc1cc(Nc2ncc(C)c(N3CC(CC#N)(N4CCN(C)[C@H](C)C4)C3)n2)sn1` [E52C], the results for the IC50 against TYK2 and against JAK2 were < 10 nM and < 20 nM, respectively. With `Cc1cnc(Nc2ccc3c(c2)CN(C)C3)nc1N1CC(CC#N)(N2CCC(CCF)CC2)C1` [E112], the IC50 on JAK1 and on JAK2 was < 50 nM each time. Consider `Cc1cc(Nc2ncc(C)c(N3CC(CC#N)(NC(=O)c4cccc(C(F)(F)F)c4)C3)n2)sn1` [E315], for which the IC50 on JAK1 is < 10 nM; at TYK2 it was < 20 nM. `Cc1cc(Nc2ncc(C)c(N3CC(CC#N)(NC(=O)c4cc(F)cc(F)c4C)C3)n2)sn1` [E317]: the IC50 was < 30 nM against JAK1 and < 20 nM at TYK2. Take `CCC1(NC(=O)c2cccc(F)c2)CN(c2nc(Nc3cc(C)ns3)ncc2C)C1` [E318B]: the IC50 at JAK1 and at TYK2 was < 10 nM in each case. Turning to `CCC1(NC(=O)c2cccc(F)c2)CN(c2nc(Nc3cnn(C)c3)ncc2C)C1` [E318C], the IC50 was < 10 nM against JAK1 and < 50 nM against TYK2. Regarding `Cc1cc(Nc2ncc(C)c(N3CC(CC#N)(NC(=O)c4cccc(F)c4C)C3)n2)sn1` [E318], the values for the IC50 against JAK1 and on TYK2 were < 50 nM and < 30 nM, respectively. Take `Cc1cc(Nc2ncc(C)c(N3CC(CC#N)(NCc4cccc(Cl)c4)C3)n2)sn1` [E350]: the IC50 against JAK1 and against TYK2 was < 10 nM throughout.

With `Cc1cnc(Nc2cnn(C)c2)nc1N1CC(CC#N)(NCc2cccc(Cl)c2)C1` [E351], the values for the IC50 against JAK1 and against TYK2 were < 20 nM and < 50 nM, respectively. In the case of `Cc1cc(Nc2ncc(C)c(N3CC(CC#N)(NC(C)c4cccc(F)c4)C3)n2)sn1` (stereo not drawn) [E352], the IC50 on JAK1 was < 100 nM; on TYK2, < 50 nM. Regarding `Cc1cc(Nc2ncc(C)c(N3CC(CC#N)(NC(=O)c4cncc(F)c4)C3)n2)sn1` [E353], the IC50 was < 20 nM at JAK1 and < 50 nM against TYK2. In the case of `Cc1cc(Nc2ncc(C)c(N3CC(CC#N)(NC(=O)C4CCCCC4(F)F)C3)n2)sn1` (stereo not drawn) [E354], the IC50 against JAK1 and at TYK2 was < 50 nM throughout. For `Cc1cc(Nc2ncc(C)c(N3CC(CC#N)(NC(=O)C4CCCC(F)(F)C4)C3)n2)sn1` (stereo not drawn) [E356], the IC50 at JAK1 and against TYK2 was < 10 nM throughout. Consider `Cc1cc(Nc2ncc(C)c(N3CC(CC#N)(NCC4CC4(F)F)C3)n2)sn1` (stereo not drawn) [E357], for which the IC50 was < 20 nM at JAK1 and < 10 nM on TYK2.

With `Cc1cc(Nc2ncc(C)c(N3CC(CC#N)(NCC4CCC(F)(F)C4)C3)n2)sn1` (stereo not drawn) [E358], the IC50 against JAK1 and on TYK2 was < 10 nM throughout. Take `Cc1cc(Nc2ncc(C)c(N3CC(CC#N)(NCC4CCC(F)C4)C3)n2)sn1` (stereo not drawn) [E359]: the IC50 at JAK1 and against TYK2 was < 10 nM each time.
